This assay concerns the target PIM-2 (Homo sapiens, UniProt Q9P1W9). The assay can be described thus: PIM-2 assay, IC50 determination (luciferase-luciferin ATP depletion, 10-point dose response). The class given is biochemical. As to conditions: 10 nM PIM-2, 1 μM ATP, 50 μM peptide substrate, 15 minutes at room temperature.

Chain of PIM-2 (Q9P1W9 whole entry): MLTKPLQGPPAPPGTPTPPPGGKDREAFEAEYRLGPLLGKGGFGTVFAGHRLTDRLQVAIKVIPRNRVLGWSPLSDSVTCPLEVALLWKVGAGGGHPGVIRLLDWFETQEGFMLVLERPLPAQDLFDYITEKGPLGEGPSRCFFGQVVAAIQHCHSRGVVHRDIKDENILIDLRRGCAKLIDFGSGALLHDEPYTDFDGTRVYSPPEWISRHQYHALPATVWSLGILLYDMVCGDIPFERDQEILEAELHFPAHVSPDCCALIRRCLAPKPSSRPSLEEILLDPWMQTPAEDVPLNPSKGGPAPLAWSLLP
Description: The screen utilizes the Zymark Allegro UHTS system to dispense reagents, buffers and test compounds. To Greiner 384-well, white Lumitrac-200 plates, 20 μL/well of 20 nM PIM-2 (10 nM final assay concentration) in assay buffer (25 mM HEPES, pH 7.5, 10 mM MgCl2, 50 mM KCl, 0.2% CHAPS, 100 μM Na3VO4, 0.2% BSA and 200 μM TCEP) is delivered, followed by 10 μL/well of test compounds (3 μg/mL final assay concentration in 1% DMSO) that were previously dissolved in DMSO and diluted in assay buffer. A 10 μL volume of a solution containing 4 μM ATP (1 μM final assay concentration) and 20 μM peptide substrate (Biotin-[sequence], 5 μM final assay concentration) diluted in assay buffer is added to each well and the contents of the wells are mixed. […] Positive control wells receive 10 μL/well of assay buffer in lieu of compound. The kinase reaction mixture is incubated for 60 minutes at room temperature. A 40 μL/well of ATP detection reagent is then added to the reaction mixture. The assay plates are read on an Analyst (Molecular Devices) in luminescence mode following additional 15 minutes of incubation at room temperature. Luminescence signals are converted to percent of control (POC) values using the formula: POC=(BCTRL−Signal)÷(BCTRL−PCTRL), where Signal is the test well signal, BCTRL is the average of background control well signals on the plate and PCTRL is the average of positive control well signals on the plate.
The IC50 of the compounds is determined with a modification of the above method. The assay is performed in 96-well Lumitrac-200, white, plates. Test compounds dissolved in DMSO (5 mg/mL) are serially diluted 1 to 3 in DMSO for 10-point dose response. The DMSO dilutions are further diluted in the assay buffer and 15 μL of this dilution is added to the assay plate, for a final starting assay concentration of 5 μg/mL in 1% DMSO. A 15 μL volume of 40 nM PIM-2 followed by 30 μL of a solution containing 2 μM ATP and 100 μM peptide substrate, all diluted in assay buffer, is added to each well for a final assay concentration of 10 nM PIM-2, 1 μM ATP, and 50 μM peptide substrate. The kinase reaction mixture is incubated for 15 minutes at room temperature. A 60 μL/well of ATP detection reagent is then added to the reaction mixture. The assay plates are read on an Analyst (Molecular Devices) in luminescence mode following additional 15 minutes of incubation at room temperature. IC50 is determined by fitting the POC of the dose response data to a 4-parameter logistic equation.

`CN1CCCN(c2cncc(-c3cncc(/C=C/C(=O)O)c3)n2)CC1` [compound 37, (E)-3-{5-[6-(4-Methyl-[1,4]diazepan-1-yl)-pyrazin-2-yl]-pyridin-3-yl}-acrylic acid]: the IC50 was 0.385 µM.

The molecule `CCNCCCNc1cncc(-c2cccc(/C=C/C(=O)O)c2)n1` [compound 11, (E)-3-{3-[6-(3-Ethylamino-propylamino)-pyrazin-2-yl]-phenyl}-acrylic acid] registered a half-inhibitory concentration (IC50) of 0.12 µM.

`CN(C)CCCN(C)c1cncc(-c2cccc(/C=C/C(=O)O)c2)n1` [compound 14, (E)-3-(3-{6-[(3-Dimethylamino-propyl)-methyl-amino]-pyrazin-2-yl}-phenyl)-acrylic acid] had a 50% inhibitory concentration (IC50) of 0.37 µM.

`NC1CCN(c2cncc(-c3cccc(/C=C/C(=O)O)c3)n2)CC1` [compound 25, (E)-3-{3-[6-(4-Amino-piperidin-1-yl)-pyrazin-2-yl]-phenyl}-acrylic acid]: the midpoint of inhibition, the IC50, lay at 0.115 µM. Compared with the last molecule, the IC50 is about 3.2-fold lower.

Regarding `COCCNc1cncc(-c2cccc(/C=C/C(=O)O)c2)n1` [compound 20, (E)-3-{3-[6-(2-Methoxy-ethylamino)-pyrazin-2-yl]-phenyl}-acrylic acid], the IC50 was 1.2 µM.

For the molecule `CN1CCCN(c2cncc(-c3cccc(/C=C/c4nnn[nH]4)c3)n2)CC1` [compound 43, 1-Methyl-4-(6-{3-[(E)-2-(1H-tetrazol-5-yl)-vinyl]-phenyl}-pyrazin-2-yl)-[1,4]diazepane], the midpoint of inhibition, the IC50, lay at 0.089 µM.

For the molecule `O=C(O)/C=C/c1cccc(-c2cncc(N3CCC(O)CC3)n2)c1` [compound 32, (E)-3-{3-[6-(4-Hydroxy-piperidin-1-yl)-pyrazin-2-yl]-phenyl}-acrylic acid], the IC50 was determined as 1.05 µM. This IC50 is about 12-fold higher than that of the molecule before.

For the molecule `O=C(O)/C=C/c1cccc(-c2cncc(N3CCCCCC3)n2)c1` [compound 35, (E)-3-[3-(6-Azepan-1-yl-pyrazin-2-yl)-phenyl]-acrylic acid], 3.3 µM corresponded to half-maximal inhibition (IC50).

Take `O=C(O)/C=C/c1cccc(-c2cncc(NCCCO)n2)c1` [compound 18, (E)-3-{3-[6-(3-Hydroxy-propylamino)-pyrazin-2-yl]-phenyl}-acrylic acid]: the half-maximal inhibitory concentration (IC50) is 0.31 µM.

On to `CC(C)(CN)CNc1cncc(-c2cccc(/C=C/C(=O)O)c2)n1` [compound 7, (E)-3-{3-[6-(3-Amino-2,2-dimethyl-propylamino)-pyrazin-2-yl]-phenyl}-acrylic acid], for which 0.027 µM corresponded to half-maximal inhibition (IC50).

As for `CN(C)C1CCN(c2cncc(-c3cccc(/C=C/C(=O)O)c3)n2)CC1` [compound 24, (E)-3-{3-[6-(4-Dimethylamino-piperidin-1-yl)-pyrazin-2-yl]-phenyl}-acrylic acid], the half-inhibitory concentration (IC50) came out at 0.072 µM.

Take `CN(C)CCNc1cncc(-c2cccc(/C=C/C(=O)O)c2)n1` [compound 9, (E)-3-{3-[6-(2-Dimethylamino-ethylamino)-pyrazin-2-yl]-phenyl}-acrylic acid]: the IC50 came out at 0.099 µM.

Turning to `O=C(O)/C=C/c1cccc(-c2cncc(N3CCNCC3)n2)c1` [compound 28, (E)-3-[3-(3,4,5,6-Tetrahydro-2H-[1,2′]bipyrazinyl-6′-yl)-phenyl]-acrylic acid], the IC50 was 0.2 µM.

`O=C(O)/C=C/c1cccc(-c2cncc(N3CCCNCC3)n2)c1` [compound 27, (E)-3-[3-(6-[1,4]Diazepan-1-yl-pyrazin-2-yl)-phenyl]-acrylic acid]: 0.185 µM corresponded to half-maximal inhibition (IC50).

`NCC1CCN(c2cncc(-c3cccc(/C=C/C(=O)O)c3)n2)CC1` [compound 22, (E)-3-{3-[6-(4-Aminomethyl-piperidin-1-yl)-pyrazin-2-yl]-phenyl}-acrylic acid] came in with a 50% inhibitory concentration (IC50) of 0.021 µM.

Turning to `CN1CCCN(c2cncc(-c3cccc(/C=C/C(=O)NS(C)(=O)=O)c3)n2)CC1` [compound 44, N-((E)-3-{3-[6-(4-Methyl-perhydro-1,4-diazepin-1-yl)-pyrazin-2-yl]-phenyl}-acryloyl)-methanesulfonamide], it took 2.4 µM to reach half-maximal inhibition (IC50).

As for `CC(=O)NCCNc1cncc(-c2cccc(/C=C/C(=O)O)c2)n1` [compound 21, (E)-3-{3-[6-(2-Acetylamino-ethylamino)-pyrazin-2-yl]-phenyl}-acrylic acid], the IC50 was 1.02 µM. This IC50 lies about 2.4-fold lower than the previous one.

For the molecule `NCCCNc1cncc(-c2cccc(/C=C/C(=O)O)c2)n1` [compound 6, (E)-3-{3-[6-(3-Amino-propylamino)-pyrazin-2-yl]-phenyl}-acrylic acid], the half-inhibitory concentration (IC50) turned out to be 0.027 µM.

With `O=C(O)/C=C/c1cccc(-c2cncc(NCC3CCNCC3)n2)c1` [compound 4, (E)-3-(3-{6-[(Piperidin-4-ylmethyl)-amino]-pyrazin-2-yl}-phenyl)-acrylic acid], the half-inhibitory concentration (IC50) worked out at 0.057 µM.

As for `CN1CCCN(c2cncc(-c3cccc(/C=C/C(N)=O)c3)n2)CC1` [compound 40, (E)-3-{3-[6-(4-Methyl-[1,4]diazepan-1-yl)-pyrazin-2-yl]-phenyl}-acrylamide], the IC50 was 1.2 µM.

As to `CN1CCCN(c2cncc(-c3cccc(CCC(=O)O)c3)n2)CC1` [compound 38, 3-[3-[6-(4-Methyl-[1,4]diazepan-1-yl)-pyrazin-2-yl]-phenyl]-propionic acid], the IC50 stood at 1.4 µM.

Take `O=C(O)/C=C/c1cccc(-c2cncc(N3CCCN(Cc4ccccc4)CC3)n2)c1` [compound 29, (E)-3-{3-[6-(4-Benzyl-[1,4]diazepan-1-yl)-pyrazin-2-yl]-phenyl}-acrylic acid]: the concentration for half-maximal inhibition (IC50) was 0.23 µM.

Consider `O=C(O)/C=C/c1cccc(-c2cncc(N3CCOCC3)n2)c1` [compound 34, (E)-3-[3-(6-Morpholin-4-yl-pyrazin-2-yl)-phenyl]-acrylic acid], for which the concentration for half-maximal inhibition (IC50) turned out to be 1.7 µM.

Consider `CN1CCN(c2cncc(-c3cccc(/C=C/C(=O)O)c3)n2)CC1` [compound 26, (E)-3-[3-(4-Methyl-3,4,5,6-tetrahydro-2H-[1,2′]bipyrazinyl-6′-yl)-phenyl]-acrylic acid], for which the midpoint of inhibition, the IC50, lay at 0.15 µM.

Turning to `CN(C)C1CCN(c2cncc(-c3cccc(/C=C/C(=O)O)c3)n2)C1` (stereo not shown) [compound 30, (E)-3-{3-[6-(3-Dimethylamino-pyrrolidin-1-yl)-pyrazin-2-yl]-phenyl}-acrylic acid], the IC50 was 0.27 µM.

`O=C(O)/C=C/c1cccc(-c2cncc(NCCO)n2)c1` [compound 17, (E)-3-{3-[6-(2-Hydroxy-ethylamino)-pyrazin-2-yl]-phenyl}-acrylic acid]: half-maximal inhibition (IC50) required 0.3 µM.

`CC(=O)N1CCCN(c2cncc(-c3cccc(/C=C/C(=O)O)c3)n2)CC1` [compound 31, (E)-3-{3-[6-(4-Acetyl-[1,4]diazepan-1-yl)-pyrazin-2-yl]-phenyl}-acrylic acid]: the half-inhibitory concentration (IC50) came out at 0.88 µM.

As to `O=C(O)/C=C/c1cccc(-c2cncc(N[C@H]3CC[C@H](O)CC3)n2)c1` [compound 3, (E)-3-{3-[6-(4-Hydroxy-cyclohexylamino)-pyrazin-2-yl]-phenyl}-acrylic acid], the midpoint of inhibition, the IC50, lay at 0.265 µM.

The molecule `CNCCCN(C)c1cncc(-c2cccc(/C=C/C(=O)O)c2)n1` [compound 10, (E)-3-(3-{6-[Methyl-(3-methylamino-propyl)-amino]-pyrazin-2-yl}-phenyl)-acrylic acid] had an IC50 of 0.11 µM. Against the preceding molecule, the IC50 is about 2.4-fold lower.

In the case of `NC(=O)CNc1cncc(-c2cccc(/C=C/C(=O)O)c2)n1` [compound 15, (E)-3-{3-[6-(Carbamoylmethyl-amino)-pyrazin-2-yl]-phenyl}-acrylic acid], the IC50 is 0.084 µM.

`COCCCNc1cncc(-c2cccc(/C=C/C(=O)O)c2)n1` [compound 19, (E)-3-{3-[6-(3-Methoxy-propylamino)-pyrazin-2-yl]-phenyl}-acrylic acid] registered a half-maximal inhibitory concentration (IC50) of 0.48 µM.

Broadly, the IC50 is the concentration at which inhibition is half-maximal. Lower therefore signals greater potency.
